Assay results taken from ChEMBL document CHEMBL1909549, “Synthesis, pharmacophore modeling and in vitro activity of 10,11-dihydrodibenzo[b,f]oxepine-4-carboxamide derivatives as novel and potent antagonists of the prostaglandin EP4 receptor” (Bioorg Med Chem Lett, 2011).
Calls of active or inactive are those of the source. The rule behind the calls is not given here.

Columns and labels:
[1] = molecular target: CYP2C9 (Homo sapiens, UniProt P11712); assay: Inhibition of recombinant human CYP2C9 at 3 uM by fluorimetry; assay type: ADME
Sequence of CYP2C9 (P11712 whole entry): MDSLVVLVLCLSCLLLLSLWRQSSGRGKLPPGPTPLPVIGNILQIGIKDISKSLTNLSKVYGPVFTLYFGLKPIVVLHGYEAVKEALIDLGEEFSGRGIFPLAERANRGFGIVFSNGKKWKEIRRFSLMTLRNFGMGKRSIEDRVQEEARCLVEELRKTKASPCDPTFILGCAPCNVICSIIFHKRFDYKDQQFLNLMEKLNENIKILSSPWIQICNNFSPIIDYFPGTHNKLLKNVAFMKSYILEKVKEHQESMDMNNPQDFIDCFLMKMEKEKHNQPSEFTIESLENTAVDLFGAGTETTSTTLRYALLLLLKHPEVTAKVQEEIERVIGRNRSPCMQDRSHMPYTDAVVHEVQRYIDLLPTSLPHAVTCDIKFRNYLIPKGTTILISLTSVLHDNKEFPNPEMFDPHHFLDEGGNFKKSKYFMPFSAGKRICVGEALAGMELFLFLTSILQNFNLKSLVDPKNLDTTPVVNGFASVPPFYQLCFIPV

[2] = molecular target: T1, Prostaglandin E2 receptor EP4 subtype (Homo sapiens, UniProt P35408); assay: Antagonist activity at human EP4 receptor expressed in HEK293 cells assessed as inhibition of PGE2-induced cAMP accumulation by bead-based proximity assay; assay type: functional, cell-based
T1 sequence (P35408 whole entry): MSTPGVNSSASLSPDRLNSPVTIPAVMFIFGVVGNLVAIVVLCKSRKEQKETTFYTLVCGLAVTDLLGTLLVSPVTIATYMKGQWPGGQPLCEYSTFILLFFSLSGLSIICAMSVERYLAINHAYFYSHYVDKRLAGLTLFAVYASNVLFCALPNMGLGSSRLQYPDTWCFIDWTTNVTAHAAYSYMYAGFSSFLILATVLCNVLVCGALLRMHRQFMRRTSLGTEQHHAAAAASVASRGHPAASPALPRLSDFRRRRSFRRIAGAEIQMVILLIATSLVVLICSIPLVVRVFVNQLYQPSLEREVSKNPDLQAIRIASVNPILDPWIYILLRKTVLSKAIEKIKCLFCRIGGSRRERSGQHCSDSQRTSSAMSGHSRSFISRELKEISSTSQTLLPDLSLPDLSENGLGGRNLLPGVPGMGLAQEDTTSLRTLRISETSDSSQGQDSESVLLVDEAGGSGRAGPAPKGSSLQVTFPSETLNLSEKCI

[3] = molecular target: T2, Cytochrome P450 3A4 (Homo sapiens, UniProt P08684); assay: Inhibition of recombinant human CYP3A4 using 7-benzyloxy-4-trifluoromethyl coumarin as substrate at 3 uM by fluorimetry; assay type: ADME; conditions: recombinant enzyme
T2 sequence (P08684 whole entry): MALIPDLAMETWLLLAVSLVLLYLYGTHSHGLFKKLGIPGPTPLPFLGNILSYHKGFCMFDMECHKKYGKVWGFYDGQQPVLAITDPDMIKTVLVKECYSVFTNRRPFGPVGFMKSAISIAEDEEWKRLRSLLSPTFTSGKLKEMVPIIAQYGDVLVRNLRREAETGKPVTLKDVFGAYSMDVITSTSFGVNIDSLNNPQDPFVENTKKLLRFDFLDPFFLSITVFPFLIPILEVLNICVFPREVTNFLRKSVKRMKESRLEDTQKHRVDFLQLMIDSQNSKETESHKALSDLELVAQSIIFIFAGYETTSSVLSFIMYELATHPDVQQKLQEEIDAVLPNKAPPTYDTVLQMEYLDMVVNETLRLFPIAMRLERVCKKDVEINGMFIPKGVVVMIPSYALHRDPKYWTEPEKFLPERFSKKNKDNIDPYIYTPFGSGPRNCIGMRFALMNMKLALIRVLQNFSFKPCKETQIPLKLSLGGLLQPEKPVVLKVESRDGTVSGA

[4] = molecular target: T2, Cytochrome P450 3A4; assay: Inhibition of recombinant human CYP3A4 using diethoxyfluorescein as substrate at 3 uM by fluorimetry; assay type: ADME; conditions: recombinant enzyme
[5] = molecular target: T1, Prostaglandin E2 receptor EP4 subtype; assay: Agonist activity at human EP4 receptor expressed in HEK293 cells assessed as potentiation of cAMP accumulation by bead-based proximity assay in absence of PGE2; assay type: functional, cell-based
[6] = molecular target: T1, Prostaglandin E2 receptor EP4 subtype; assay: Displacement of [3H]-PGE2 from human EP4 receptor expressed in HEK293 cells; assay type: cell-based
[7] = molecular target: Cytochrome P450 2D6 (Homo sapiens, UniProt P10635); assay: Inhibition of recombinant human CYP2D6 at 3 uM by fluorimetry; assay type: ADME; conditions: recombinant enzyme
Sequence of Cytochrome P450 2D6 (P10635 whole entry): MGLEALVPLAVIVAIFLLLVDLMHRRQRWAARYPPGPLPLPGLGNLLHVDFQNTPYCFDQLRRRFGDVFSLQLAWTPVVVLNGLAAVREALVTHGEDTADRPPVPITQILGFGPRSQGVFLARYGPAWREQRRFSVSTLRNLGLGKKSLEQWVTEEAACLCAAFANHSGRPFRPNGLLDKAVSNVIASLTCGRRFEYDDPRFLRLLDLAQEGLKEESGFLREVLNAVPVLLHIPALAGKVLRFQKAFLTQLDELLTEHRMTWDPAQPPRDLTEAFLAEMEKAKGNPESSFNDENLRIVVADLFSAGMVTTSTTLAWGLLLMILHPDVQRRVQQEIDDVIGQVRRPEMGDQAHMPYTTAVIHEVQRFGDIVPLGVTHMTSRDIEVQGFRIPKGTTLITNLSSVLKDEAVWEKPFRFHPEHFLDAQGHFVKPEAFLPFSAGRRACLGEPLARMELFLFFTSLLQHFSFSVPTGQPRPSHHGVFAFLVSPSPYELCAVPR

[8] = molecular target: Prostaglandin E2 receptor EP2 subtype (Homo sapiens, UniProt P43116); assay: Displacement of [3H]-PGE2 from human EP2 receptor expressed in HEK293 cells; assay type: cell-based
Sequence of Prostaglandin E2 receptor EP2 subtype (P43116 whole entry): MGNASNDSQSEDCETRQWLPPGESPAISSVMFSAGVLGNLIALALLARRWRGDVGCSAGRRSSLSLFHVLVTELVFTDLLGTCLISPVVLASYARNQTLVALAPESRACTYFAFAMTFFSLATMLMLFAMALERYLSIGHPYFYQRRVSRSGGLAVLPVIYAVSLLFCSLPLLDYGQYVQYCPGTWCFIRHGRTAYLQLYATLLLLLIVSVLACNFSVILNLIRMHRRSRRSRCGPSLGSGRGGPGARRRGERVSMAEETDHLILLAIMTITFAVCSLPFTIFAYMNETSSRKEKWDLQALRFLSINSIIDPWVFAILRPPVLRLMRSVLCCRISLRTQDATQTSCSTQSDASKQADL

[9] = molecular target: Cytochrome P450 2C19 (Homo sapiens, UniProt P33261); assay: (§1) Inhibition of recombinant human CYP2C19 at 3 uM by fluorimetry; assay type: ADME; conditions: recombinant enzyme, 3 µM
Sequence of Cytochrome P450 2C19 (P33261 whole entry): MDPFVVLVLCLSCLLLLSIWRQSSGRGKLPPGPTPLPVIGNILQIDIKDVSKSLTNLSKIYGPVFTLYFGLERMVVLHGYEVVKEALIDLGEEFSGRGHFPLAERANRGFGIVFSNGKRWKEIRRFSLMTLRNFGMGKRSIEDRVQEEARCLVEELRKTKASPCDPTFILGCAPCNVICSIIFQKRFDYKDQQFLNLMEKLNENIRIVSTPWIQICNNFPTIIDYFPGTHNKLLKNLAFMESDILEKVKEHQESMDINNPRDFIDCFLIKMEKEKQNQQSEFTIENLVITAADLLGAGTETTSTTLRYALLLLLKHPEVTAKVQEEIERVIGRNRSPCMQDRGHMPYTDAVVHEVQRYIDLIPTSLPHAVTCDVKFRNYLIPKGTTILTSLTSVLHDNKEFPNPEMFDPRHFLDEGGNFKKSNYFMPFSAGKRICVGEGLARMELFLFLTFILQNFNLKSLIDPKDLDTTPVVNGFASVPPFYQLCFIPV

[10] = molecular target: T3, Cytochrome P450 1A2 (Homo sapiens, UniProt P05177); assay: Inhibition of recombinant human CYP1A2 at 3 uM by fluorimetry; assay type: ADME; conditions: recombinant enzyme
T3 sequence (P05177 whole entry): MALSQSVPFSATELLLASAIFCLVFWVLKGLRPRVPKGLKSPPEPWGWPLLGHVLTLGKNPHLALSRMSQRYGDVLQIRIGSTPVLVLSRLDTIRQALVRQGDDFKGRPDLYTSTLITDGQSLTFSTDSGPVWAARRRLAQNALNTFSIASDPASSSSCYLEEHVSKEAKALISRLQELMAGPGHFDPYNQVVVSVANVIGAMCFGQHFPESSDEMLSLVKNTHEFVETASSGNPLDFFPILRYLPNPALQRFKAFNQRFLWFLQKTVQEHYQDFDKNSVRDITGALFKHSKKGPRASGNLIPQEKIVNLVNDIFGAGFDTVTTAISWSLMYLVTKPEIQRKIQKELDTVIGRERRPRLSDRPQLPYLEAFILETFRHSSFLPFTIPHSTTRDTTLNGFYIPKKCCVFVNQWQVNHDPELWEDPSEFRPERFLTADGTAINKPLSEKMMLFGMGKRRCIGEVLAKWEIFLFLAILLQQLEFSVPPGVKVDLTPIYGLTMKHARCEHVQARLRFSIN

[11] = molecular target: CYP2C19 (Homo sapiens, UniProt P33261); assay: as §1; assay type: ADME; conditions: recombinant human CYP2C19
Sequence of CYP2C19 (P33261 whole entry): as the sequence (P33261 whole entry) above

[12] = molecular target: T1, Prostaglandin E2 receptor EP4 subtype; assay: Ratio of CJ-42794 IC50 to compound IC50 for human EP4 receptor expressed in HEK293 cells; assay type: cell-based

inhibition at 3 µM [1] [%] | IC50 [2] [nM] | inhibition (INH) [3] | inhibition (INH) [4] | Activity [5] | IC50 [6] [nM] | inhibition (INH) [7] | IC50 [8] [nM] | inhibition (INH) [9] | inhibition (INH) [10] | inhibition at 3 µM [11] [%] | Ratio IC50 [12] | Compound
17 | 42 | Not Active | Not Active | inactive | 63 | Not Active | > 1000 | – | Not Active | 11 | – | C[C@H](NC(=O)c1cccc2c1Oc1ccc(C(F)(F)F)cc1CC2)c1ccc(C(=O)O)cc1
– | 13 | – | – | – | 10 | – | > 1000 | – | – | – | – | C[C@H](NC(=O)c1cc(Cl)ccc1Oc1ccc(F)cc1)c1ccc(C(=O)O)cc1
21 | 20 | Not Active | Not Active | inactive | 2 | Not Active | > 1000 | Not Active | Not Active | – | 5 | C[C@H](NC(=O)c1cccc2c1Oc1cc(C(F)(F)F)ccc1CC2)c1ccc(C(=O)O)cc1

Further lines, the molecule ahead of its results:

Compound | inhibition at 3 µM [1] [%] | IC50 [2] [nM] | inhibition (INH) [3] | inhibition (INH) [4] | Activity [5] | IC50 [6] [nM] | inhibition (INH) [7] | IC50 [8] [nM] | inhibition (INH) [9] | inhibition (INH) [10] | inhibition at 3 µM [11] [%] | Ratio IC50 [12]
O=C(O)c1ccc(C2(NC(=O)c3cccc4c3Oc3cc(C(F)(F)F)ccc3CC4)CC2)cc1 | 11 | 1000 | Not Active | Not Active | inactive | 4 | Not Active | > 1000 | Not Active | Not Active | – | –
O=C(O)c1ccc(C2(NC(=O)c3cccc4c3Oc3ccc(C(F)(F)F)cc3CC4)CC2)cc1 | 26 | 34 | Not Active | Not Active | inactive | 27 | Not Active | > 1000 | – | Not Active | 13 | –
